The source of these data is US11421218B2, “Methods for enhancing the efficiency of gene editing” (Dana-Farber Cancer Institute, Inc., priority 2016, dated 2022).

Molecules are shown by their SMILES. Entries after “also recorded” stand apart in the source; their conditions may differ.

One data set has as its system RAD51 foci. As to the kind of experiment: RAD51 foci formation by immunofluorescence in MMC-treated GM6914 cells. The format is cell-based. To be noted: GM6914 (FA-A) or GM6914+FANCA cells, 1 μM MMC, 10 μM inhibitors, 6 h. How it is done:
GM6914 (FA-A) cells or corrected GM6914+FANCA cells were treated with 1 μMMMC and 10 μM inhibitors for 6 h before immunofluorescence analysis. Representative images (FIG. 3E) and quantification (FIG. 3F) of RAD51 foci are shown, (Scale bar: 50 μm).

Data set [1] has as its system U2OS cells with DR-GFP reporter. As to the kind of experiment: Homologous recombination assay, U2OS cells with DR-GFP reporter. To be noted: 10 μM. The format is cell-based. The procedure:
Homologous recombination assay was measured in U2OS cells with DR-GFP reporter after treatment with 10 μM RI-1 and 10 μM B02. The representative of two independent experiments is presented.
HR assay was measured in U2OS cells with DR-GFP reporter after transduction with lentivirus encoding indicated shRNAs. The representative of three independent experiments is presented.

The test system of another data set is HSPCs. The data set is described as follows: HSPC survival with RAD51 inhibitors (cytotoxicity). The data set is classed as cell-based. Particulars: HSPCs from WT or Fancd2−/− mice, 10 μM, in vitro five days. How it is done:
HSPCs from WT or Fancd2−/− mice were treated with B02 (10 μM) or RI-1 (10 μM) in vitro for five days and survival was determined.

The test system of the next data set is gamma H2AX foci. The data set is described as follows: pIpC stress in mice, gamma H2AX foci. To be noted: wild-type or Fancd2-deficient mice, pretreated in vivo. The text has this:
(§1) FIG. 6A is a schematic showing that wild-type or Fancd2-deficient mice were exposed to the physiologic stress, pIpC. Mice were pretreated in vivo with either no Tgfβ inhibitor, the neutralizing antibody to Tgfβ 1, 2, 3, or the Tgfβ receptor kinase inhibitor, Galunisertib. Long-term HSCs (LT-HSCs) were isolated and subjected to functional tests.

For the next data set, the system named is TGFβ signaling. As to the kind of experiment: Physiological stress (pIpC)-induced bone marrow failure in mice. Particulars: pretreated in vivo.
Excerpt: as §1

Another data set relates to LT-HSCs. The data set is described as follows: pIpC stress in mice, comet assay on LT-HSCs. To be noted: wild-type or Fancd2-deficient mice, pretreated in vivo.
Excerpt: as §1

The test system of data set [2] is GM6914 cells (FA-A cells). The data set is described as follows: Traffic light reporter assay of HR and NHEJ repair events. The data set is classed as cell-based. To be noted: GM6914 cells exposed to SD-208 for 72 hrs. The source says:
FIGS. 4A-4B are graphs showing that TGF-β pathway inhibition affects the choice of HR versus NHEJ pathways in repairing individual DNA breakpoints in FA cells. GM6914 cells (FA-A cells) or FANCA corrected GM6914 cells with shControl or shSMAD3 were used to generate traffic light reporter system, and then were infected with GFP-donor template and I-SceI lentivirus to generate DNA breakpoints. Quantification analysis of HR and NHEJ repair events is shown. (FIG. 4B) The ratio of HR to NHEJ activity based on the data in (FIG. 4A).
Quantification of HR and NHEJ repair events in GM6914 cells exposed to SD-208 for 72 hrs as detected by traffic light reporter assay described in FIG. 4A.
FIG. 5A is a schematic of traffic light reporter assay. Endonuclease 1-SceI induces double strand break (DSB) in the restriction site. […]
FIG. 5B is a graph showing HR and NHEJ repair analyzed by traffic light reporter (TLR) system. […] HR and NHEJ repair events (GFP or mCherry positive cells) were quantified by flow cytometry.
To directly confirm that inhibition of TGF-β pathway modulates HR or NHEJ activity, we engineered an individual DNA breakpoint in FA (GM6914) cells and employed the traffic light reporter […] system which quantifies both HR and NHEJ activities (Certo et al., 2011). […]

Take `O=c1c2ccccc2nc(/C=C/c2cccnc2)n1Cc1ccccc1` [B02]: the RAD51 foci formation entry in the data set on RAD51 foci is “efficiently block RAD51 foci formation”. In addition, in data set [1], the HR efficiency result was “significantly decrease HR efficiency”. Besides, the “cytotoxicity in HSPCs (survival)” value in the data set on HSPCs is on record as “do not show cytotoxicity in HSPCs”.
With `Cc1cccc(-c2nn3c(c2-c2ccnc4ccc(C(N)=O)cc24)CCC3)n1` [Galunisertib, 4-[2-(6-methylpyridin-2-yl)-5,6-dihydro-4H-pyrrolo[1,2-b]pyrazol-3-yl]quinoline-6-carboxamide], the “pIpC-induced DNA damage, gamma H2AX foci” value in the data set with gamma H2AX foci is reported as “rescued the pIpC-induced DNA damage”. Moreover, the “physiological stress-induced bone marrow failure” value in the data set on TGFβ signaling is listed as “rescues physiological stress-induced bone marrow failure in mice”. In the data set on LT-HSCs, the “pIpC-induced DNA damage in LT-HSCs, comet assay” value is listed as “rescued the pIpC-induced DNA damage”.
Turning to `O=C1C(Cl)=C(N2CCOCC2)C(=O)N1c1ccc(Cl)c(Cl)c1` [RI-1], the RAD51 foci formation result with RAD51 foci is on record as “efficiently block RAD51 foci formation”. The HR efficiency entry in data set [1] is reported as “significantly decrease HR efficiency”. Moreover, the “cytotoxicity in HSPCs (survival)” value in the data set on HSPCs is on record as “do not show cytotoxicity in HSPCs”.
Regarding `Fc1ccc(Cl)cc1-c1nc(Nc2ccncc2)c2nccnc2n1` [SD208, 2-(5-Chloro-2-fluorophenyl)-4-[(4-pyridyl)amino]pteridine], in data set [2], the HR repair events result is on record as “increased HR activity in FA cells; also recorded: increases FIR events” and the NHEJ repair events entry is reported as “decreases NHEJ events”.
